According to ChEMBL document CHEMBL1158746, “Structures and aldose reductase inhibitory effects of bromophenols from the red alga Symphyocladia latiuscula” (J Nat Prod, 2005):

Target: Aldo-keto reductase family 1 member B1 (Homo sapiens, UniProt P15121)
Assay: Inhibition of human muscle recombinant aldose reductase by spectrophotometry
Parameters: species or system Muscle tissue

Row | Compound | IC50 [nM]
1 | Oc1c(Br)cc(Cc2c(Br)c(O)c(O)c(Br)c2Br)c(Br)c1O | 638
2 | Oc1cc(Br)c(COCc2c(Br)c(O)c(O)c(Br)c2Br)c(Br)c1O | 167
3 | O=Cc1c(Br)c(O)c(O)c(Br)c1Br | 667

Further molecules by falling IC50, results first:

Row | IC50 [nM] | Compound
4 | 3190 | Cc1c(Br)c(O)c(O)c(Br)c1Br
5 | 567 | Oc1c(O)c(Br)c(Cc2c(Br)c(O)c(O)c(Br)c2Br)c(Br)c1Br
